Results taken from ChEMBL document CHEMBL1201862, “PubChem BioAssay data set” (2004).
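Assay format: 96-well plates, 48-hour exposure. The concentration for 50% growth inhibition is given as GI50.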 Calls of active or inactive are those of the source. No stated cut-off is given here; in the data, active = GI50 up to about 1.1 µM and inactive = higher.

How the values were obtained:
Assay in all cases: NCI-60 cell line screen, 48 h
786-0 = system: 786-0
A549 = system: A549
ACHN = system: ACHN
BT-549 = system: BT-549
CCRF-CEM = system: CCRF-CEM
COLO 205 = system: COLO 205
DU-145 = system: DU-145
EKVX = system: EKVX
HCC 2998 = system: HCC 2998
HCT-116 = system: HCT-116
HCT-15 = system: HCT-15
HL-60 = system: HL-60
HOP-62 = system: HOP-62
HT-29 = system: HT-29
Hs-578T = system: Hs-578T
IGROV-1 = system: IGROV-1
K562 = system: K562
KM12 = system: KM12
LOX IMVI = system: LOX IMVI
M14 = system: M14
MCF7 = system: MCF7
MDA-MB-231 = system: MDA-MB-231
MDA-MB-435 = system: MDA-MB-435
MDA-N = system: MDA-N
MOLT-4 = system: MOLT-4
Malme-3M = system: Malme-3M
NCI-H226 = system: NCI-H226
NCI-H23 = system: NCI-H23
NCI-H460 = system: NCI-H460
NCI-H522 = system: NCI-H522
NCI/ADR-RES = system: NCI/ADR-RES
OVCAR-3 = system: OVCAR-3
OVCAR-4 = system: OVCAR-4
OVCAR-5 = system: OVCAR-5
OVCAR-8 = system: OVCAR-8
PC-3 = system: PC-3
RPMI-8226 = system: RPMI-8226
RXF 393 = system: RXF 393
SF-268 = system: SF-268
SF-295 = system: SF-295
SF-539 = system: SF-539
SK-MEL-28 = system: SK-MEL-28
SK-MEL-2 = system: SK-MEL-2
SK-MEL-5 = system: SK-MEL-5
SK-OV-3 = system: SK-OV-3
SN12C = system: SN12C
SNB-19 = system: SNB-19
SNB-75 = system: SNB-75
SR = system: SR
SW-620 = system: SW-620
T47D = system: T47D
TK-10 = system: TK-10
U-251 = system: U-251
UACC-257 = system: UACC-257
UACC-62 = system: UACC-62
UO-31 = system: UO-31

## CC1C(=O)C23OC[C@@]1(C)C1(O)CC[C@@H](C)[C@]21CC3=O (stereo partly specified)
786-0
  GI50: > 100 µM (inactive)
A549
  GI50: > 100 µM (inactive)
ACHN
  GI50: > 100 µM (inactive)
BT-549
  GI50: > 100 µM (inactive)
CCRF-CEM
  GI50: > 100 µM (inactive)
COLO 205
  GI50: > 100 µM (inactive)
DU-145
  GI50: > 100 µM (inactive)
EKVX
  GI50: > 100 µM (inactive)
HCC 2998
  GI50: > 100 µM (inactive)
HCT-116
  GI50: > 100 µM (inactive)
HCT-15
  GI50: > 100 µM
HL-60
  GI50: > 100 µM (inactive)
HOP-62
  GI50: > 100 µM (inactive)
HT-29
  GI50: > 100 µM (inactive)
Hs-578T
  GI50: > 100 µM (inactive)
IGROV-1
  GI50: > 100 µM (inactive)
K562
  GI50: > 100 µM (inactive)
KM12
  GI50: > 100 µM (inactive)
LOX IMVI
  GI50: > 100 µM (inactive)
M14
  GI50: > 100 µM (inactive)
MCF7
  GI50: > 100 µM (inactive)
MDA-MB-231
  GI50: > 100 µM (inactive)
MDA-MB-435
  GI50: > 100 µM (inactive)
MDA-N
  GI50: > 100 µM (inactive)
MOLT-4
  GI50: > 100 µM (inactive)
Malme-3M
  GI50: > 100 µM (inactive)
NCI-H226
  GI50: > 100 µM (inactive)
NCI-H23
  GI50: > 100 µM (inactive)
NCI-H460
  GI50: > 100 µM (inactive)
NCI-H522
  GI50: > 100 µM (inactive)
NCI/ADR-RES
  GI50: > 100 µM (inactive)
OVCAR-3
  GI50: > 100 µM (inactive)
OVCAR-4
  GI50: > 100 µM (inactive)
OVCAR-5
  GI50: > 100 µM (inactive)
OVCAR-8
  GI50: > 100 µM (inactive)
PC-3
  GI50: > 100 µM (inactive)
RPMI-8226
  GI50: > 100 µM (inactive)
RXF 393
  GI50: > 100 µM (inactive)
SF-268
  GI50: > 100 µM (inactive)
SF-295
  GI50: > 100 µM (inactive)
SF-539
  GI50: > 100 µM (inactive)
SK-MEL-28
  GI50: > 100 µM (inactive)
SK-MEL-2
  GI50: > 100 µM (inactive)
SK-MEL-5
  GI50: > 100 µM (inactive)
SK-OV-3
  GI50: > 100 µM (inactive)
SN12C
  GI50: > 100 µM (inactive)
SNB-19
  GI50: > 100 µM (inactive)
SNB-75
  GI50: > 100 µM (inactive)
SR
  GI50: > 100 µM (inactive)
SW-620
  GI50: > 100 µM (inactive)
T47D
  GI50: > 100 µM (inactive)
TK-10
  GI50: > 100 µM (inactive)
U-251
  GI50: > 100 µM (inactive)
UACC-257
  GI50: > 100 µM (inactive)
UACC-62
  GI50: > 100 µM (inactive)
UO-31
  GI50: > 100 µM (inactive)
